Measurements from US12427144B2, “Compounds and methods for the targeted degradation of androgen receptor” (Arvinas Operations, Inc., priority 2019, dated 2025).

Biological target: T1, Androgen Receptor (AR) (Homo sapiens, UniProt P10275)
T1 construct: endogenous in cells; host or cells: VCaP
T1 sequence (P10275 1-920): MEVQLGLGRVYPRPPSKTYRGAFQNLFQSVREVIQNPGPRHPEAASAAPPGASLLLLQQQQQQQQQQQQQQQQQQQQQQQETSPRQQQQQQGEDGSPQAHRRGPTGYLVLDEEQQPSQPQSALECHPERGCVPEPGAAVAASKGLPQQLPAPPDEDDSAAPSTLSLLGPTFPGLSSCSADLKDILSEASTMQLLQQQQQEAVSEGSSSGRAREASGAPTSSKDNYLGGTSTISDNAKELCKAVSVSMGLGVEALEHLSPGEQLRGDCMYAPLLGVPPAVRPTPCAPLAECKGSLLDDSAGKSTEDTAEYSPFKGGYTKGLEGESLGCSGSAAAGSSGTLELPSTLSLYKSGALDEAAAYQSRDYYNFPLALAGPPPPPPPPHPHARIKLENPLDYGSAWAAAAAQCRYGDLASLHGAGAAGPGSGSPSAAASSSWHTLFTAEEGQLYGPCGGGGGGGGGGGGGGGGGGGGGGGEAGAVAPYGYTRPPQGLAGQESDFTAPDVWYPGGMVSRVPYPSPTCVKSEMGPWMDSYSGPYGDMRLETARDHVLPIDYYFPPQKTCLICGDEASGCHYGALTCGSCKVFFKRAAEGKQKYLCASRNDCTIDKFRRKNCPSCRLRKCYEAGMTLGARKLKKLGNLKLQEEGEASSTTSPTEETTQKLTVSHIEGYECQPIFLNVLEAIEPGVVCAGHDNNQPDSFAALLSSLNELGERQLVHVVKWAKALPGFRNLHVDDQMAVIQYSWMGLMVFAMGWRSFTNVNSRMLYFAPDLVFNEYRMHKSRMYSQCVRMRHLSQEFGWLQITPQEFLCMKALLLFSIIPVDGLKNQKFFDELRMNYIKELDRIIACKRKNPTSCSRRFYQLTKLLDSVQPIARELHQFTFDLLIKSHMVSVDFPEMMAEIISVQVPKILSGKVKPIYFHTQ
Assay: AR immunofluorescence staining, high content imager, VCaP cells
Type: cell-based
Details: for DC50: AR degradation by immunofluorescence; for Dmax: maximal AR degradation
Outline: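 VCaP cells treated with compound, fixed in 4% PFA (8% 2× solution added directly for low-adherence lines), permeabilised with 0.1% Triton X-100 and blocked. Stained overnight at 4° C with anti-AR antibody, then FITC anti-rabbit secondary plus phalloidin and DAPI/Hoechst. Read by high-content imaging.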

SMILES	DC50	Dmax
COc1cc(O[C@H]2C[C@H](N3CCOC4(CCN(c5ccc(C(=O)N[C@H]6C(C)(C)[C@H](Oc7cc(C)c(C#N)c(C)c7)C6(C)C)cc5)CC4)C3)C2)ccc1C(=O)NC1CCC(=O)NC1=O (some centres unmarked) [Compound 53, N-(2,6-dioxopiperidin-3-yl)-2-methoxy-4-[(1r,3r)-3-[9-(4-{[(1r,3r)-3-(4-cyano-3,5-dimethylphenoxy)-2,2,4,4-tetramethylcyclobutyl]carbamoyl}phenyl)-1-oxa-4,9-diazaspiro[5.5]undecan-4-yl]cyclobutoxy]benzamide]	< 1 nM	≥ 70%
Cc1cc(O[C@H]2C(C)(C)[C@H](NC(=O)c3ccc(N4CCC(CN5CCN(c6ccc(C(=O)N[C@H]7CCC(=O)NC7=O)nc6)CC5)CC4)cc3)C2(C)C)cc(C)c1C#N [Compound 41, 5-[4-[[1-[4-[[3-(4-cyano-3,5-dimethyl-phenoxy)-2,2,4,4-tetramethyl-cyclobutyl]carbamoyl]phenyl]-4-piperidyl]methyl]piperazin-1-yl]-N-[(3S)-2,6-dioxo-3-piperidyl]pyridine-2-carboxamide]	< 1 nM	≥ 70%
Cc1cc(O[C@H]2C(C)(C)[C@H](NC(=O)c3ccc(N4CCO[C@H](CN(C(C)C)[C@H]5C[C@@H](Oc6ccc(C(=O)N[C@H]7CCC(=O)NC7=O)c(F)c6)C5)C4)cc3)C2(C)C)cc(C)c1C#N [Compound 47, 4-[(2R)-2-{[(propan-2-yl)[(1r,3r)-3-(4-{[(3S)-2,6-dioxopiperidin-3-yl]carbamoyl}-3-fluorophenoxy)cyclobutyl]amino]methyl}morpholin-4-yl]-N-[(1r,3r)-3-(4-cyano-3,5-dimethylphenoxy)-2,2,4,4-tetramethylcyclobutyl]benzamide]	< 1 nM	≥ 70%
N#Cc1ccc(O[C@H]2CC[C@H](NC(=O)c3ccc(N4CCC(CN5CCN(c6ccc(C(=O)NC7CCC(=O)NC7=O)nn6)CC5)CC4)nn3)CC2)cc1Cl (some centres unmarked) [Compound 28, N-[4-(3-chloro-4-cyano-phenoxy)cyclohexyl]-6-[4-[[4-[6-[(2,6-dioxo-3-piperidyl)carbamoyl]pyridazin-3-yl]piperazin-1-yl]methyl]-1-piperidyl]pyridazine-3-carboxamide]	< 1 nM	≥ 70%
